Results as given in PMC11822212, “High-throughput screening identifies Aurora kinase B as a critical therapeutic target for Merkel cell carcinoma” (Nature Communications, 2025).
Read-outs that look alike come from different tables or passages of the source.

Tests used:
MCC13 cells (VN-MCC) = assay: qHTS cell viability (CellTiter-Glo, 72 h; primary and follow-up small molecule screen); format: cell-based, human
MCC26 cells (VN-MCC) = assay: as above; format: cell-based, human
UISO cells (VN-MCC) = assay: as above; format: cell-based, human
WAGA cells (VP-MCC) = assay: as above; format: cell-based, human
MKL-1 cells (VP-MCC) = assay: as above; format: cell-based, human
MKL-2 cells (VP-MCC) = assay: as above; format: cell-based, human
HACAT cells = assay: qHTS cell viability (CellTiter-Glo, 72 h; primary screen), control cell line; format: cell-based, human
HEK293T cells = assay: as above; format: cell-based, human
NIH-3T3 cells = assay: as above; format: cell-based, mouse
CRL-7250 cells = assay: as above; format: cell-based
[1] = system: MCC cell lines (WAGA, MKL-1, MKL-2, MCC13, MCC26, UISO); assay: qHTS cell viability, all six MCC cell lines as a group (mean AUC, MCC.avg); format: cell-based, human
[2] = system: VP-MCC cell lines (WAGA, MKL-1, MKL-2); assay: qHTS cell viability, VP-MCC cell lines as a group (mean AUC, VP.MCC.avg); format: cell-based, human
[3] = system: VN-MCC cell lines (MCC13, MCC26, UISO); assay: qHTS cell viability, VN-MCC cell lines as a group (mean AUC, VN.MCC.avg); format: cell-based, human
[4] = system: control cell lines (HACAT, HEK293T, CRL-7250, NIH-3T3); assay: qHTS cell viability, control cell lines as a group (mean AUC, Control.avg); format: cell-based
[5] = system: six MCC cell lines and four control cell lines; assay: qHTS cell viability, all 10 cell lines screened; format: cell-based
[6] = MIPE library, 11-point DRC, sheet S2E
[7] = MIPE library, 11-point DRC, control cell line, sheet S2E

SMILES: CC(=O)O[C@]1(C(C)=O)CC[C@H]2[C@@H]3C=C(C)C4=CC(=O)CC[C@]4(C)[C@H]3CC[C@@]21C [Megestrol acetate]
- MCC13_AUC (MCC13 cells (VN-MCC); [6]): 479.341
- MCC13_AUC (MCC13 cells (VN-MCC); area under the dose-response curve, MCC13 cells, AUC<450 = reduced viability): 479.661
- Area under the dose-response curve (AUC) MCC13 Replicate 1 (MCC13 cells (VN-MCC); follow-up screen, MCC13, replicate 1): 522.1
- Area under the dose-response curve (AUC) MCC13 Replicate 2 (MCC13 cells (VN-MCC); follow-up screen, MCC13, replicate 2): 498.9
- Area under the dose-response curve (AUC) MCC13 Replicate 3 (MCC13 cells (VN-MCC); follow-up screen, MCC13, replicate 3): 453.4
- MCC26_AUC (MCC26 cells (VN-MCC); [6]): 477.94
- MCC26_AUC (MCC26 cells (VN-MCC); area under the dose-response curve, MCC26 cells, AUC<450 = reduced viability): 486.411
- Area under the dose-response curve (AUC) MCC26 Replicate 1 (MCC26 cells (VN-MCC); follow-up screen, MCC26, replicate 1): 464.5
- Area under the dose-response curve (AUC) MCC26 Replicate 2 (MCC26 cells (VN-MCC); follow-up screen, MCC26, replicate 2): 445.6
- Area under the dose-response curve (AUC) MCC26 Replicate 3 (MCC26 cells (VN-MCC); follow-up screen, MCC26, replicate 3): 484.7
- UISO_AUC (UISO cells (VN-MCC); [6]): 463.276
- UISO_AUC (UISO cells (VN-MCC); area under the dose-response curve, UISO cells, AUC<450 = reduced viability): 481.624
- Area under the dose-response curve (AUC) UISO Replicate 1 (UISO cells (VN-MCC); follow-up screen, UISO, replicate 1): 487.9
- Area under the dose-response curve (AUC) UISO Replicate 2 (UISO cells (VN-MCC); follow-up screen, UISO, replicate 2): 467.2
- Area under the dose-response curve (AUC) UISO Replicate 3 (UISO cells (VN-MCC); follow-up screen, UISO, replicate 3): 452.8
- WAGA_AUC (WAGA cells (VP-MCC); [6]): 348.793
- WAGA_AUC (WAGA cells (VP-MCC); area under the dose-response curve, WAGA cells, AUC<450 = reduced viability): 442.363
- Area under the dose-response curve (AUC) WAGA Replicate 1 (WAGA cells (VP-MCC); follow-up screen, WAGA, replicate 1): 536.2
- Area under the dose-response curve (AUC) WAGA Replicate 2 (WAGA cells (VP-MCC); follow-up screen, WAGA, replicate 2): 483.3
- Area under the dose-response curve (AUC) WAGA Replicate 3 (WAGA cells (VP-MCC); follow-up screen, WAGA, replicate 3): 478.6
- MKL1_AUC (MKL-1 cells (VP-MCC); [6]): 380.312
- MKL1_AUC (MKL-1 cells (VP-MCC); area under the dose-response curve, MKL-1 cells, AUC<450 = reduced viability): 437.052
- Area under the dose-response curve (AUC) MKL-1 Replicate 1 (MKL-1 cells (VP-MCC); follow-up screen, MKL-1, replicate 1): 482.4
- Area under the dose-response curve (AUC) MKL-1 Replicate 2 (MKL-1 cells (VP-MCC); follow-up screen, MKL-1, replicate 2): 475.6
- Area under the dose-response curve (AUC) MKL-1 Replicate 3 (MKL-1 cells (VP-MCC); follow-up screen, MKL-1, replicate 3): 473.0
- MKL2_AUC (MKL-2 cells (VP-MCC); [6]): 396.638
- MKL2_AUC (MKL-2 cells (VP-MCC); area under the dose-response curve, MKL-2 cells, AUC<450 = reduced viability): 447.482
- Area under the dose-response curve (AUC) MKL-2 Replicate 1 (MKL-2 cells (VP-MCC); follow-up screen, MKL-2, replicate 1): 460.3
- Area under the dose-response curve (AUC) MKL-2 Replicate 2 (MKL-2 cells (VP-MCC); follow-up screen, MKL-2, replicate 2): 492.7
- Area under the dose-response curve (AUC) MKL-2 Replicate 3 (MKL-2 cells (VP-MCC); follow-up screen, MKL-2, replicate 3): 490.0
- HACAT_AUC (HACAT cells; [7]): 434.851
- HACAT_AUC (HACAT cells; area under the dose-response curve, HACAT control cells, AUC<450 = reduced viability): 455.962
- HEK293T_AUC (HEK293T cells; [7]): 472.9
- HEK293T_AUC (HEK293T cells; area under the dose-response curve, HEK293T control cells, AUC<450 = reduced viability): 457.911
- NIH3T3_AUC (NIH-3T3 cells; [7]): 472.047
- NIH3T3_AUC (NIH-3T3 cells; area under the dose-response curve, NIH3T3 control cells, AUC<450 = reduced viability): 478.678
- CRL7250_AUC (CRL-7250 cells; [7]): 475.825
- CRL7250_AUC (CRL-7250 cells; area under the dose-response curve, CRL7250 control cells, AUC<450 = reduced viability): 475.174
- MCC_Avg_AUC ([1]; MIPE library, mean AUC of six MCC cell lines, sheet S2E): 424.384
- Control-VP-MCC ([2]; MIPE library, Control AUC minus VP-MCC AUC (therapeutic window), sheet S2E): 88.658
- VP-MCC_Avg_AUC ([2]; MIPE library, mean AUC of VP-MCC cell lines, sheet S2E): 375.248
- Control-VN-MCC ([3]; MIPE library, Control AUC minus VN-MCC AUC (therapeutic window), sheet S2E): -9.613
- VN-MCC_Avg_AUC ([3]; MIPE library, mean AUC of VN-MCC cell lines, sheet S2E): 473.519
- Control_Avg_AUC ([4]; MIPE library, mean AUC of control cell lines, sheet S2E): 463.906
- Control-MCC ([5]; MIPE library, Control AUC minus MCC AUC (therapeutic window), sheet S2E): 39.5225

SMILES: N[C@@H](Cc1ccc(N(CCCl)CCCl)cc1)C(=O)O [Melphalan]
- MCC13_AUC (MCC13 cells (VN-MCC)): 467.949
- MCC26_AUC (MCC26 cells (VN-MCC)): 465.715
- UISO_AUC (UISO cells (VN-MCC)): 405.245
- WAGA_AUC (WAGA cells (VP-MCC)): 417.577
- MKL1_AUC (MKL-1 cells (VP-MCC)): 386.049
- MKL2_AUC (MKL-2 cells (VP-MCC)): 377.097
- HACAT_AUC (HACAT cells): 448.936
- HEK293T_AUC (HEK293T cells): 460.279
- NIH3T3_AUC (NIH-3T3 cells): 465.754
- CRL7250_AUC (CRL-7250 cells): 448.797
- MCC_Avg_AUC [1]: 419.939
- Control-VP-MCC [2]: 62.3672
- VP-MCC_Avg_AUC [2]: 393.574
- Control-VN-MCC [3]: 9.639
- VN-MCC_Avg_AUC [3]: 446.303
- Control_Avg_AUC [4]: 455.942
- Control-MCC [5]: 36.0029

SMILES: Cc1cc(OCCOCC[N+](C)(C)Cc2ccccc2)ccc1C(C)(C)CC(C)(C)C.[Cl-] [Methylbenzethonium chloride]
- MCC13_AUC (MCC13 cells (VN-MCC); NPC library, qHTS dose-response AUC, MCC13): 479.749
- MCC26_AUC (MCC26 cells (VN-MCC); NPC library, qHTS dose-response AUC, MCC26): 455.487
- UISO_AUC (UISO cells (VN-MCC); NPC library, qHTS dose-response AUC, UISO): 375.218
- WAGA_AUC (WAGA cells (VP-MCC); NPC library, qHTS dose-response AUC, WAGA): 200.731
- MKL1_AUC (MKL-1 cells (VP-MCC); NPC library, qHTS dose-response AUC, MKL1): 312.601
- MKL2_AUC (MKL-2 cells (VP-MCC); NPC library, qHTS dose-response AUC, MKL2): 209.354
- HACAT_AUC (HACAT cells; NPC library, qHTS dose-response AUC, HACAT control): 428.465
- HEK293T_AUC (HEK293T cells; NPC library, qHTS dose-response AUC, HEK293T control): 317.092
- NIH3T3_AUC (NIH-3T3 cells; NPC library, qHTS dose-response AUC, NIH3T3 control): 469.697
- CRL7250_AUC (CRL-7250 cells; NPC library, qHTS dose-response AUC, CRL7250 control): 444.568
- MCC_Avg_AUC ([1]; NPC library, mean AUC of six MCC cell lines): 338.857
- VP-MCC_Avg_AUC ([2]; NPC library, mean AUC of VP-MCC cell lines): 240.895
- Control-VP-MCC ([2]; NPC library, therapeutic window: Control avg AUC minus VP-MCC avg AUC): 174.06
- VN-MCC_Avg_AUC ([3]; NPC library, mean AUC of VN-MCC cell lines): 436.818
- Control-VN-MCC ([3]; NPC library, therapeutic window: Control avg AUC minus VN-MCC avg AUC): -21.8625
- Control_Avg_AUC ([4]; NPC library, mean AUC of control cell lines): 414.956
- Control-MCC ([5]; NPC library, therapeutic window: Control avg AUC minus MCC avg AUC): 76.0988
